# What was measured:
# [1] = tested on: Staphylococcus epidermidis; test: standard microtiter assay, minimum inhibitory concentration; format: cell-based; set-up: minimum inhibitory concentration of antibiotic, Test Organism 8: unit not given here; conditions: for minimum inhibitory concentration of antibiotic, Test Organism 6: Test Organism 6, strain of Staphylococcus epidermidis; for minimum inhibitory concentration of antibiotic, Test Organism 11: Test Organism 11, strain of Staphylococcus epidermidis; for minimum inhibitory concentration of antibiotic, Test Organism 13: Test Organism 13, strain of Staphylococcus epidermidis; for minimum inhibitory concentration of antibiotic, Test Organism 14: Test Organism 14, strain of Staphylococcus epidermidis; for minimum inhibitory concentration of antibiotic, Test Organism 8: Test Organism 8, strain of Staphylococcus epidermidis
# Excerpt: (§1) Representative results of standard microtiter assays are reported in Table 1 which follows, as the minimum inhibitory concentration of antibiotic (mg/ml). In Table 1, test organisms 1-5 were different strains of Staphylococcus aureus; 6, 8, 11, 13 and 14 were different strains of Staphylococcus epidermidis; 7 was a Staphylococcus haemolyticus; 9 and 10 were different strains of Streptococcus faecalis; and 12 was a Staphylococcus saprophyticus.
# [2] = pI (analytical data, Table 2); format: physicochemical
# Excerpt: Using substantially the procedures of both Examples 1 and 2, the compounds of Examples 3-15 were obtained by using the appropriate glycopeptide and amine starting materials.
# [3] = tested on: Staphylococcus haemolyticus; test: standard microtiter assay, minimum inhibitory concentration; format: cell-based; conditions: Test Organism 7, Staphylococcus haemolyticus
# Excerpt: as §1
# [4] = tested on: Streptococcus faecalis; test: as above; format: cell-based; conditions: for minimum inhibitory concentration of antibiotic, Test Organism 9: Test Organism 9, strain of Streptococcus faecalis; for minimum inhibitory concentration of antibiotic, Test Organism 10: Test Organism 10, strain of Streptococcus faecalis
# Excerpt: as §1
# [5] = tested on: Staphylococcus aureus; test: as above; format: cell-based; conditions: for minimum inhibitory concentration of antibiotic, Test Organism 1: Test Organism 1, strain of Staphylococcus aureus; for minimum inhibitory concentration of antibiotic, Test Organism 2: Test Organism 2, strain of Staphylococcus aureus; for minimum inhibitory concentration of antibiotic, Test Organism 3: Test Organism 3, strain of Staphylococcus aureus; for minimum inhibitory concentration of antibiotic, Test Organism 4: Test Organism 4, strain of Staphylococcus aureus; for minimum inhibitory concentration of antibiotic, Test Organism 5: Test Organism 5, strain of Staphylococcus aureus
# Excerpt: as §1
# [6] = tested on: Staphylococcus saprophyticus; test: as above; format: cell-based; conditions: Test Organism 12, Staphylococcus saprophyticus
# Excerpt: as §1
Compound,pI [2],"minimum inhibitory concentration of antibiotic, Test Organism 6 [1] [µg/mL]","minimum inhibitory concentration of antibiotic, Test Organism 11 [1] [µg/mL]","minimum inhibitory concentration of antibiotic, Test Organism 13 [1] [µg/mL]","minimum inhibitory concentration of antibiotic, Test Organism 14 [1] [µg/mL]","minimum inhibitory concentration of antibiotic, Test Organism 7 [3] [µg/mL]","minimum inhibitory concentration of antibiotic, Test Organism 9 [4] [µg/mL]","minimum inhibitory concentration of antibiotic, Test Organism 1 [5] [µg/mL]","minimum inhibitory concentration of antibiotic, Test Organism 2 [5] [µg/mL]","minimum inhibitory concentration of antibiotic, Test Organism 3 [5] [µg/mL]","minimum inhibitory concentration of antibiotic, Test Organism 4 [5] [µg/mL]","minimum inhibitory concentration of antibiotic, Test Organism 5 [5] [µg/mL]","minimum inhibitory concentration of antibiotic, Test Organism 12 [6] [µg/mL]","minimum inhibitory concentration of antibiotic, Test Organism 8 [1]","minimum inhibitory concentration of antibiotic, Test Organism 10 [4] [µg/mL]"
"CNC1C(=O)NC2C(=O)NC(C(=O)NC3C(=O)NC4C(=O)NC(C(=O)NC(C(=O)NCCO)c5cc(O)cc(O)c5-c5cc4ccc5O)C(O)c4cc(Cl)c(c(Cl)c4)Oc4cc3cc(c4O)Oc3ccc(cc3Cl)C2O)c2cc(cc(O)c2Cl)Oc2cc1ccc2O (stereo not shown) [Compound 2d, Ardacin aglycone-(2-hydroxyethyl amide)]",7.1,400,800,200,400,800,200,50,50,50,200,200,400,–,–
"CNCCNC(=O)C1NC(=O)C2NC(=O)C(NC(=O)C3NC(=O)C4NC(=O)C(NC(=O)C(NC)c5ccc(O)c(c5)Oc5cc(O)c(Cl)c4c5)C(O)c4ccc(c(Cl)c4)Oc4cc3cc(c4O)Oc3c(Cl)cc(cc3Cl)C2O)c2ccc(O)c(c2)-c2c(O)cc(O)cc21 (stereo not shown) [Compound 2f, Ardacin aglycone-(2-Nmethylaminoethyl amide)]",7.7,200,100,50,100,200,100,200,200,100,200,100,100,0.1,100
"CNC1C(=O)NC2C(=O)NC(C(=O)NC3C(=O)NC4C(=O)NC(C(=O)NC(C(=O)NCCN(C)C)c5cc(O)cc(O)c5-c5cc4ccc5O)C(O)c4cc(Cl)c(c(Cl)c4)Oc4cc3cc(c4O)Oc3ccc(cc3Cl)C2O)c2cc(cc(O)c2Cl)Oc2cc1ccc2O (stereo not shown) [Compound 2g, Ardacin aglycone-(2-N,Ndimethylaminoethyl amide)]",7.7,200,200,50,50,200,100,200,100,200,400,100,100,0.2,200
"CNC1C(=O)NC2C(=O)NC(C(=O)NC3C(=O)NC4C(=O)NC(C(=O)NC(C(=O)NCCCCCCN)c5cc(O)cc(O)c5-c5cc4ccc5O)C(O)c4cc(Cl)c(c(Cl)c4)Oc4cc3cc(c4O)Oc3ccc(cc3Cl)C2O)c2cc(cc(O)c2Cl)Oc2cc1ccc2O (stereo not shown) [Compound 2h, Ardacin aglycone-(6-aminohexyl amide)]",7.7,100,200,100,–,200,100,100,100,400,100,100,200,0.1,100
"CCCCCCCCCC(=O)NC1C(Oc2c3cc4cc2Oc2c(Cl)cc(cc2Cl)C(O)C2NC(=O)C(NC(=O)C4NC(=O)C4NC(=O)C(NC(=O)C(NC)c5ccc(O)c(c5)Oc5cc(O)c(Cl)c4c5)C(O)c4ccc(c(Cl)c4)O3)c3ccc(O)c(c3)-c3c(OC4OC(CO)C(O)C(O)C4O)cc(O)cc3C(C(=O)NCCO)NC2=O)OC(C(=O)NCCO)C(O)C1O (stereo not shown) [Compound 2l, Ardacin A-di-(2-hydroxyethyl amide)]",7.3,1600,800,200,–,800,100,200,200,200,400,400,800,0.4,100

# The next lines start with results.
pI [2],Compound,"minimum inhibitory concentration of antibiotic, Test Organism 6 [1] [µg/mL]","minimum inhibitory concentration of antibiotic, Test Organism 11 [1] [µg/mL]","minimum inhibitory concentration of antibiotic, Test Organism 13 [1] [µg/mL]","minimum inhibitory concentration of antibiotic, Test Organism 14 [1] [µg/mL]","minimum inhibitory concentration of antibiotic, Test Organism 7 [3] [µg/mL]","minimum inhibitory concentration of antibiotic, Test Organism 9 [4] [µg/mL]","minimum inhibitory concentration of antibiotic, Test Organism 1 [5] [µg/mL]","minimum inhibitory concentration of antibiotic, Test Organism 2 [5] [µg/mL]","minimum inhibitory concentration of antibiotic, Test Organism 3 [5] [µg/mL]","minimum inhibitory concentration of antibiotic, Test Organism 4 [5] [µg/mL]","minimum inhibitory concentration of antibiotic, Test Organism 5 [5] [µg/mL]","minimum inhibitory concentration of antibiotic, Test Organism 12 [6] [µg/mL]","minimum inhibitory concentration of antibiotic, Test Organism 8 [1]","minimum inhibitory concentration of antibiotic, Test Organism 10 [4] [µg/mL]"
7.2,"CCCCCCCCCC(=O)NC1C(Oc2c3cc4cc2Oc2c(Cl)cc(cc2Cl)C(O)C2NC(=O)C(NC(=O)C4NC(=O)C4NC(=O)C(NC(=O)C(NC)c5ccc(O)c(c5)Oc5cc(O)c(Cl)c4c5)C(O)c4ccc(c(Cl)c4)O3)c3ccc(O)c(c3)-c3c(OC4OC(CO)C(O)C(O)C4O)cc(O)cc3C(C(N)=O)NC2=O)OC(C(N)=O)C(O)C1O (stereo not shown) [Compound 2j, Ardacin A diamide]",6300,6300,3100,800,3100,200,800,1600,800,3100,1600,3100,6.3,100
7.0,"CCCCCCCCCC(=O)NC1C(Oc2c3cc4cc2Oc2c(Cl)cc(cc2Cl)C(O)C2NC(=O)C(NC(=O)C4NC(=O)C4NC(=O)C(NC(=O)C(NC)c5ccc(O)c(c5)Oc5cc(O)c(Cl)c4c5)C(O)c4ccc(c(Cl)c4)O3)c3ccc(O)c(c3)-c3c(OC4OC(CO)C(O)C(O)C4O)cc(O)cc3C(C(=O)NN)NC2=O)OC(C(=O)NN)C(O)C1O (stereo not shown) [Compound 2k, Ardacin A dihydrazide]",12500,12500,3100,3100,12500,400,3100,3100,1600,6300,3100,6300,12.5,100
8.4,"CCCCCCCCCC(=O)NC1C(Oc2c3cc4cc2Oc2c(Cl)cc(cc2Cl)C(O)C2NC(=O)C(NC(=O)C4NC(=O)C4NC(=O)C(NC(=O)C(NC)c5ccc(O)c(c5)Oc5cc(O)c(Cl)c4c5)C(O)c4ccc(c(Cl)c4)O3)c3ccc(O)c(c3)-c3c(OC4OC(CO)C(O)C(O)C4O)cc(O)cc3C(C(=O)NCCN)NC2=O)OC(C(=O)NCCN)C(O)C1O (stereo not shown) [Compound 2m, Ardacin A-di-(2-aminoethylamide)]",1600,800,200,–,800,100,100,100,100,800,400,400,0.1,100
